{"source": "patent US20020013306A1", "about": "“TERPYRIDINE-PLATINUM(II) COMPLEXES” (priority 1996, published 2002)", "key": {"[1]": {"test_system": "CH1 human ovarian carcinoma cell line", "assay": "96 h growth inhibition, sulforhodamine B assay, CH1", "type": "cell-based", "conditions": "96 h exposure, v = variable (mean)"}, "T. cruzi (MHOM/BR/00/Y)": {"test_system": "T. cruzi (MHOM/BR/00/Y)", "assay": "Trypanosoma cruzi in mouse peritoneal macrophages", "type": "cell-based", "conditions": "30 μM", "experimental": "Trypanosoma cruzi: […] Drug activity was determined from the % of infected macrophages in treated cultures. Nifurtimox was used as the positive control."}, "[2]": {"test_system": "A2780cis^R human ovarian carcinoma cell line (cisplatin resistant)", "assay": "96 h growth inhibition, sulforhodamine B assay, A2780cisR", "type": "cell-based", "conditions": "96 h exposure; growth inhibition; v = variable (mean)"}, "[3]": {"test_system": "SKOV3 human ovarian carcinoma cell line", "assay": "96 h growth inhibition, sulforhodamine B assay, SKOV3", "type": "cell-based", "conditions": "96 h exposure, v = variable (mean)"}, "[4]": {"test_system": "CH1cis^R human ovarian carcinoma cell line (cisplatin resistant)", "assay": "96 h growth inhibition, sulforhodamine B assay, CH1cisR", "type": "cell-based"}, "[5]": {"test_system": "CH1dox^R human ovarian carcinoma cell line (doxorubicin resistant)", "assay": "96 h growth inhibition, sulforhodamine B assay, CH1doxR", "type": "cell-based"}, "polyfd(A-T)2)": {"test_system": "polyfd(A-T)2)", "assay": "Circular dichroism equilibrium binding", "description": "(§1) The double positive charge on 4-picoline-2,2′:6′,2″-terpyridine-platinum(II), together with the intercalative binding mode is probably responsible for the large binding constant."}, "[6]": {"assay": "Single intraperitoneal injection toxicity in tumour-bearing mice (ADJ/PC6)", "type": "in vivo", "procedure": "Compound (A) was also administered as a single intraperitoneal injection in water to mice bearing subcutaneously implanted tumours e.g. ADJ/PC6 (according to the standard protocol for evaluating platinum complexes)."}, "DNA [7]": {"test_system": "DNA", "assay": "Ligation assay (DNA unwinding)", "type": "binding", "description": "as §1"}, "DNA [8]": {"test_system": "DNA", "assay": "Fluorescence spectroscopy, ethidium bromide displacement", "type": "binding", "description": "as §1"}, "[9]": {"test_system": "T. brucei (S427) bloodstream trypomastigotes", "assay": "Trypanosoma brucei bloodstream trypomastigote culture", "type": "cell-based"}, "[10]": {"test_system": "A2780 human ovarian carcinoma cell line", "assay": "96 h growth inhibition, sulforhodamine B assay, A2780", "type": "cell-based", "conditions": "96 h exposure, v = variable (mean)"}, "[11]": {"test_system": "CHl human ovarian carcinoma subcutaneously implanted xenograph", "assay": "CH1 human ovarian carcinoma xenograft in vivo", "experimental": "In view of the in vitro results, compound (A) was investigated in vivo using the CHl human ovarian carcinoma subcutaneously implanted xenograph. The compound was administered intraperitoneally at weekly intervals for 4 weeks. Two dose levels were used; 30 and 60 mg/kg. Tumours were approximately 6-8 mm maximum diameter at the beginning of treatment. […] Two endpoints were determined, the 28 day T/C (the ratio of Treated versus Control volumes at day 28 post initial treatment) and the growth delay (GD: the difference in time taken for Treated versus Control groups to double in volume).\nAt the lower dose there was a growth delay (GD) 83.1. […] It seems likely that by using a still lower and more frequent drug schedule (e.g. daily) greater control over tumour growth could be achieved."}}, "data": [{"smiles": "Cc1ccncc1.F[B-](F)(F)F.F[B-](F)(F)F.[Pt+2].c1ccc(-c2cccc(-c3ccccn3)n2)nc1", "note": "[A, 4-picoline-2,2′:6′:2″-terpyridine-platinum(II) tetrafluoroborate]", "values": [{"measurement": "IC50", "setting": "[1]", "value": 14, "unit": "µM"}, {"measurement": "% Inhibition, Trypanosoma cruzi", "setting": "T. cruzi (MHOM/BR/00/Y)", "value": 100, "unit": "%"}, {"measurement": "IC50", "setting": "[2]", "value": "> 100", "unit": "µM"}, {"measurement": "IC50", "setting": "[3]", "value": 20, "unit": "µM"}, {"measurement": "IC50", "setting": "[4]; 96 h exposure, growth inhibition, v = variable (mean)", "value": 11, "unit": "µM"}, {"measurement": "RF resistance factor: IC50 resistant line/IC50 parent line", "setting": "[4]; CH1cis^R / CH1", "value": 0.8}, {"measurement": "IC50", "setting": "[5]; 96 h exposure, growth inhibition", "value": 4.4, "unit": "µM"}, {"measurement": "RF resistance factor: IC50 resistant line/IC50 parent line", "setting": "[5]; CH1dox^R / CH1", "value": 0.3}, {"measurement": "equilibrium binding constant, second binding mode", "setting": "polyfd(A-T)2); site size of about 2 base pairs", "value": "about 1×10^6 M^−1"}, {"measurement": "equilibrium binding constant, most stable binding mode", "setting": "polyfd(A-T)2); site size of about 4 base pairs", "value": "approximately 2×10^7 M^−1"}, {"measurement": "toxicity, single intraperitoneal injection", "setting": "[6]; 50 mg/kg in water", "value": "no toxic affect"}, {"measurement": "toxicity, single intraperitoneal injection", "setting": "[6]; 100 mg/kg in water", "value": "toxic"}, {"measurement": "LD50", "setting": "[6]; single intraperitoneal injection", "value": "approximately 70 mg/kg"}, {"measurement": "DNA unwinding / intercalation in ligation assay", "setting": "DNA [7]", "value": "unwind and so intercalate into DNA"}, {"measurement": "displacement of ethidium bromide bound to DNA", "setting": "DNA [8]", "value": "displaces ethidium bromide bound to DNA"}, {"measurement": "% Inhibition, Trypanosoma brucei", "setting": "[9]; 0.03 μM", "value": 83.3, "unit": "%"}, {"measurement": "% Inhibition, Trypanosoma brucei", "setting": "[9]; 0.1 μM", "value": 100, "unit": "%"}, {"measurement": "% Inhibition, Trypanosoma brucei", "setting": "[9]; 0.3 μM", "value": 100, "unit": "%"}, {"measurement": "% Inhibition, Trypanosoma brucei", "setting": "[9]; 1 μM", "value": 100, "unit": "%"}, {"measurement": "% Inhibition, Trypanosoma brucei", "setting": "[9]; 3 μM", "value": 100, "unit": "%"}, {"measurement": "% Inhibition, Trypanosoma brucei", "setting": "[9]; 10 μM", "value": 100, "unit": "%"}, {"measurement": "% Inhibition, Trypanosoma brucei", "setting": "[9]; 30 μM", "value": 100, "unit": "%"}, {"measurement": "IC50", "setting": "[10]", "value": 17, "unit": "µM"}, {"measurement": "growth delay (GD)", "setting": "[11]; 30 mg/kg (lower dose) intraperitoneally, weekly for 4 weeks", "value": 83.1}, {"measurement": "local peritoneal organ damage", "setting": "[11]; 60 mg/kg (higher dose) i.p. weekly for 4 weeks", "value": "evidence, of local peritoneal organ damage"}, {"measurement": "deaths due to drug toxicity", "setting": "[11]; 30 and 60 mg/kg i.p. weekly for 4 weeks", "value": "no deaths due to drug toxicity"}, {"measurement": "effect on tumour growth (Relative Tumour Volume)", "setting": "[11]; 30 and 60 mg/kg i.p. weekly for 4 weeks, especially at the lower dose", "value": "induces a growth inhibitory effect"}]}]}
